Molecular target: ERK2 (Homo sapiens, UniProt P28482)
Assay: Z′-LYTE kinase inhibition assay
Type: biochemical
Details: ATP concentration 100 μM

Chain of ERK2 (P28482 whole entry): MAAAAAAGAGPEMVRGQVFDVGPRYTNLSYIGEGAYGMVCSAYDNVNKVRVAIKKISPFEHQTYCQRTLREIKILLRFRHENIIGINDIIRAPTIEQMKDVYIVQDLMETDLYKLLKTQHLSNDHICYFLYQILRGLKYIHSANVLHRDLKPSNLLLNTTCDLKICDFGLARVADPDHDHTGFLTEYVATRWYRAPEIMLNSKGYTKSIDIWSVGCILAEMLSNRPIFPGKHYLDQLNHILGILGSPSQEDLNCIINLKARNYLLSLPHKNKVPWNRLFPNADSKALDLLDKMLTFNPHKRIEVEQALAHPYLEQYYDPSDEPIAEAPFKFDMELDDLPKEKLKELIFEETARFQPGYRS

inhibition (in words): not inhibited
Compound: Nc1cccc2cc[nH]c(=O)c12 [MR1]
